In patent publication US10669272B2, “Substituted naphthyridinone compounds useful as T cell activators” (BRISTOL-MYERS SQUIBB COMPANY, priority 2018, dated 2020):
Like-named read-outs stand apart in the source and are kept apart here.

Experiments:
human DGKα = biological target: T1, human DGKα (Homo sapiens, UniProt P23743); assay: DGKα LIPGLO assay (extruded liposome substrate), in vitro DGK inhibition; type: biochemical; conditions: read-out: DGKa LIPGLO IC50
T1 construct: TVMV protease cleavage site (C); Hexa-His (C); made in house; host or cells: Sf9 insect cells (baculovirus, Bac-to-Bac)
T1 sequence (P23743 with tags, fused parts or gaps): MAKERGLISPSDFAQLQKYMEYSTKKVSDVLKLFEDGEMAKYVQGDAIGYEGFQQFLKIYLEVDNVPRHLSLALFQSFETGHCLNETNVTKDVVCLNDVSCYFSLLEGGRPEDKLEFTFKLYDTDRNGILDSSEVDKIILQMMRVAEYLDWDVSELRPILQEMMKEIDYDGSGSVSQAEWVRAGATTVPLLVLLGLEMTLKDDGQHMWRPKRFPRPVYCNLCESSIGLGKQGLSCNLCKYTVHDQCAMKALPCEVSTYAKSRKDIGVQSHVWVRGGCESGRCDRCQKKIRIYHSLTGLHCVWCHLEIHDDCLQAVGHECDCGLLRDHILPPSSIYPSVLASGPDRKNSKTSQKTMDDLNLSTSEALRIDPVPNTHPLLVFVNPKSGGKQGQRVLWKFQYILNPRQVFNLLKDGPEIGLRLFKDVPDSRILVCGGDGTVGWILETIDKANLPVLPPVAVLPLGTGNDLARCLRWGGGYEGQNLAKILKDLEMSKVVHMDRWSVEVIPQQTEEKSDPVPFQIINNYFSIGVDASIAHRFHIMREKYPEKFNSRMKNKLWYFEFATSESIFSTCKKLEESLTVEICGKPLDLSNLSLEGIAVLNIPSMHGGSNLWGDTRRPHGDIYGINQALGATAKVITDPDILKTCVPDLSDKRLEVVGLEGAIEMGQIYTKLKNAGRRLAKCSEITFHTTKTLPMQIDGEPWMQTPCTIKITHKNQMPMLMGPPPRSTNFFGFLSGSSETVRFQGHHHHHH

human DGKζ = biological target: T2, human DGKζ (Homo sapiens, UniProt Q13574); assay: DGKζ LIPGLO assay (extruded liposome substrate), in vitro DGK inhibition; type: biochemical; conditions: read-out: DGKz LIPGLO IC50
T2 construct: TVMV protease cleavage site (C); Hexa-His (C); made in house; host or cells: Sf9 insect cells (baculovirus, Bac-to-Bac)
T2 sequence (Q13574 with tags, fused parts or gaps isoform Q13574-4): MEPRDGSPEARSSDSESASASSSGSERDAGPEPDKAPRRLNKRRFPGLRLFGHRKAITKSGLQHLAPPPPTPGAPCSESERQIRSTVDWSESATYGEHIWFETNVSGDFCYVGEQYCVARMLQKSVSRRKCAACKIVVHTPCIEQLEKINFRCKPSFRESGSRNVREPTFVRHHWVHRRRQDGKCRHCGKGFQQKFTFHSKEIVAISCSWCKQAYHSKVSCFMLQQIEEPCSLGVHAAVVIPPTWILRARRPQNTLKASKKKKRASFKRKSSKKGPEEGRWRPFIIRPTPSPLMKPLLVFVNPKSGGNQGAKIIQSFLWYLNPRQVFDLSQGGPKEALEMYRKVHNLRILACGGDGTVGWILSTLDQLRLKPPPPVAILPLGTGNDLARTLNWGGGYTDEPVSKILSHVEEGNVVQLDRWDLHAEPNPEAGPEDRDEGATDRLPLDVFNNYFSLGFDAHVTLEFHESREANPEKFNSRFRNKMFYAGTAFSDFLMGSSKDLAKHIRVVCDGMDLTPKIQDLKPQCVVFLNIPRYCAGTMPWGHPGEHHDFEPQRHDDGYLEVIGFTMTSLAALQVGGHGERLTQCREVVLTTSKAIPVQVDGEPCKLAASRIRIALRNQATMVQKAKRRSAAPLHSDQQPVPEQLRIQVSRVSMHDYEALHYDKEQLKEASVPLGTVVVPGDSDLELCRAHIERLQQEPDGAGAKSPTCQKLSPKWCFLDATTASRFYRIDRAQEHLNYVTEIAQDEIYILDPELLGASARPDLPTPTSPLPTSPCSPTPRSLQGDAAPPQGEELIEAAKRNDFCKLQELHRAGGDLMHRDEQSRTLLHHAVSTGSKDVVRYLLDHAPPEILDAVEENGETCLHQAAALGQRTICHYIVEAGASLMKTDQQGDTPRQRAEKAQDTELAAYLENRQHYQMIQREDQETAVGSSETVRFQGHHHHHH

naïve human CD8 T cells = assay: Human CD8 T cells IFN-γ assay; type: cell-based; conditions: read-out: HuCD8 INFG Normalized EC50;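 further: Naïve human CD8 T cells stimulated with plate-bound anti-CD3 and soluble anti-CD28, IFN-γ in supernatant quantified by AlphaLISA and converted to pg/mL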
Human venous whole blood = assay: Human whole blood IFN-γ assay; type: cell-based; conditions: human whole blood, read-out: INFg Whole Blood Normalized Agonist EC50;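 further: blood from healthy donors exposed to compound for 1 h before stimulation with anti-CD3 and anti-CD28 at 1 µg/mL each, IFN-γ quantified in supernatant by AlphaLISA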
Experimental: Human Whole Blood IFN-γ Assay
Human venous whole blood (22.5 μL per well), obtained from healthy donors, was pre-treated with compounds for one hour at 37° C. in a humidified 95% air/5% CO2 incubator. The blood was stimulated with 2.5 μL anti-human CD3 and anti-CD28 mAb at a final concentration of 1 μg/mL each for 24 hours at 37° C. IFN-γ in the supernatants was measured using AlphLISA kit (Cat # AL217).

[1] = Homo sapiens, T-cell, 20 h, naïve human CD8 T cells, anti-CD3 plus anti-CD28, 3 μM reference compound = 100% activation
[2] = anti-CD3 plus anti-CD28, 24 hours, 3 μM reference compound = 100% activation
[3] = Homo sapiens, T-cell, 20 h, normalized to 3 μM reference compound with anti-CD3 plus anti-CD28 as 100% activation
[4] = Homo sapiens, 24 h, normalized to 3 μM reference compound with anti-CD3 plus anti-CD28 as 100% activation
[5] = normalized to 3 μM reference compound with anti-CD3 plus anti-CD28 as 100% activation
[6] = Homo sapiens, 24 h, anti-CD3 plus anti-CD28, 24 hours, 3 μM reference compound = 100% activation

Structure (SMILES) | IC50 (human DGKα; DGKα liposome (LIPGLO) assay) | IC50 (human DGKζ; DGKζ liposome (LIPGLO) assay) | EC50 (naïve human CD8 T cells; [1]) | EC50 (Human venous whole blood; [2]) | IC50 (human DGKα; liposome (LIPGLO) assay) | IC50 (human DGKζ; liposome (LIPGLO) assay) | EC50 (naïve human CD8 T cells; [3]) | EC50 (Human venous whole blood; [4]) | EC50 (naïve human CD8 T cells; [5]) | EC50 (Human venous whole blood; [5]) | EC50 (Human venous whole blood; [6])
C[C@@H]1CN(c2c(C#N)c(=O)n(C)c3ccc(C#N)nc23)CCN1C(c1ccc(F)cc1)c1ccc(F)cn1 (some centres unmarked) [Example 903] | 630 nM | 3500 nM | 140 nM | 730 nM |  |  |  |  |  |  | 
COC(=O)C1CN(C(c2ccc(F)cc2)c2ccc(F)cc2)CCN1c1c(C#N)c(=O)n(C)c2ccc(Br)nc12 (centres unmarked) [Example 115, Methyl 4-(bis(4-fluorophenyl)methyl)-1-(6-bromo-3-cyano-1-methyl-2-oxo-1,2-dihydro-1,5-naphthyridin-4-yl)piperazine-2-carboxylate] |  |  |  |  | 1000 nM | 8800 nM | 390 nM | 2000 nM |  |  | 
C[C@@H]1CN(c2cc(=O)n(C)c3ccc(C#N)nc23)[C@@H](C)CN1Cc1c(F)ccc(F)c1Cl [Example 266, 8-[(2S,5R)-4-[(2-chloro-3,6-difluorophenyl)methyl]-2,5-dimethylpiperazin-1-yl]-5-methyl-6-oxo-5,6-dihydro-1,5-naphthyridine-2-carbonitrile] |  |  |  |  | 1400 nM | 2100 nM | 1100 nM | 2800 nM |  |  | 
CCc1cc(F)ccc1C(c1ccc(F)cc1)N1C[C@H](C)N(c2cc(=O)n(C)c3ccc(C#N)nc23)C[C@H]1C (single isomer, unassigned) [Example 228] |  |  |  |  | 58000 nM | 1400 nM |  |  | 31 nM | 2800 nM | 
CCOc1cc(F)ccc1C(c1ccc(F)cc1)N1C[C@H](C)N(c2cc(=O)n(C)c3ccc(C#N)nc23)C[C@H]1C (single isomer, unassigned) [Example 229] |  |  |  |  | 58000 nM | 450 nM |  | 8300 nM | 1000 nM |  | 
CC[C@H]1CN(C(c2ccc(F)cc2)c2ccc(Cl)cc2)[C@H](CC)CN1c1cc(=O)n(C)c2ccc(C#N)nc12 (some centres unmarked) [Example 1031] |  |  |  |  | 260 nM | 240 nM | 1.3 nM | 85 nM |  |  | 
C[C@@H]1CN(c2cc(=O)n(C)c3ccc(C#N)nc23)[C@@H](C)CN1C(c1ccccn1)c1ccc(F)cc1F (single isomer, unassigned) [Example 682] |  |  |  |  | 580 nM | 1500 nM | 39 nM |  |  | 320 nM | 
CC[C@H]1CN(C(c2ccc(F)cc2)c2ncccc2F)[C@H](CC)CN1c1cc(=O)n(C)c2ccc(C#N)nc12 (single isomer, unassigned) [Example 1038] |  |  |  |  | 77 nM | 850 nM |  |  | 21 nM | 280 nM | 
Cc1ccc(C(c2ccc(F)cc2)N2CCN(c3c(C#N)c(=O)n(C)c4ccc(C#N)nc34)C[C@H]2C)cc1 (some centres unmarked) [Example 889] | 1300 nM | 370 nM | 220 nM | 670 nM |  |  |  |  |  |  | 
CC[C@@H]1CN(c2cc(=O)n(C)c3ccc(C#N)nc23)[C@@H](C)CN1C(c1ccc(F)cc1)c1ncccc1F (some centres unmarked) [Example 1104] |  |  |  |  | 250 nM | 900 nM |  | 300 nM | 56 nM |  | 
CC(c1ccc(F)cc1)N1C[C@H](C)N(c2cc(=O)n(C)c3ccc(C#N)nc23)C[C@H]1C (single isomer, unassigned) [Example 309] |  |  |  |  | 720 nM | 490 nM |  |  | 36 nM | 880 nM | 
CCc1ccccc1C(c1ccc(F)cc1)N1C[C@H](C)N(c2cc(=O)n(C)c3ccc(OC)nc23)C[C@H]1C (single isomer, unassigned) [Example 236] |  |  |  |  | 240000 nM | 11000 nM |  |  | 10000 nM | 20000 nM | 
C[C@@H]1CN(c2cc(=O)n(C)c3ccc(C#N)nc23)[C@@H](C)CN1C(c1ccc(F)cc1)C1CCCCO1 (single isomer, unassigned) [Example 359] |  |  |  |  | 280 nM | 1100 nM | 38 nM |  |  | 660 nM | 
C[C@@H]1CN(c2cc(=O)n(C)c3ccc(C#N)nc23)[C@@H](C)CN1C(c1ccc(Cl)cc1)c1ncccc1F (single isomer, unassigned) [Example 189] |  |  |  |  | 200 nM | 550 nM | 100 nM | 1200 nM |  |  | 
C[C@@H]1CN(c2cc(=O)n(C)c3ccc(C#N)nc23)[C@@H](C)CN1C(c1ccc(F)cc1)c1c(F)cccc1F (single isomer, unassigned) [Example 275] |  |  |  |  | 1900 nM | 3600 nM |  |  | 230 nM | 3700 nM | 
Cc1ccc(C(c2cccc(C)n2)N2C[C@H](C)N(c3cc(=O)n(C)c4ccc(C#N)nc34)C[C@H]2C)cc1 (stereo partly drawn) [Example 450, 8-((2S,5R)-2,5-dimethyl-4-((6-methylpyridin-2-yl)(p-tolyl)methyl)piperazin-1-yl)-5-methyl-6-oxo-5,6-dihydro-1,5-naphthyridine-2-carbonitrile] |  |  |  |  | 2600 nM | 290 nM | 70 nM | 280 nM |  |  | 
Cc1ccc(C(c2ccc(C)cc2)N2C[C@H](C)N(c3c(C#N)c(=O)n(C)c4ccc(C#N)nc34)C[C@H]2C)cc1 [Example 806] | 6300 nM | 390 nM | 18 nM |  |  |  |  |  |  |  | 690 nM
Cc1cccc(C(c2ccc(F)cc2)N2C[C@H](C)N(c3cc(=O)n(C)c4ccc(C#N)nc34)C[C@H]2C)c1 (single isomer, unassigned) [Example 223] |  |  |  |  | 280 nM | 34 nM | 29 nM | 870 nM |  |  | 
COC[C@@H]1CN(c2cc(=O)n(C)c3ccc(C#N)nc23)[C@@H](C)CN1C(c1ccc(F)cc1)c1ccc(F)cc1 [Example 1155, 8-((2S,5S)-4-(bis(4-fluorophenyl)methyl)-5-(methoxymethyl)-2-methylpiperazin-1-yl)-5-methyl-6-oxo-5,6-dihydro-1,5-naphthyridine-2-carbonitrile] |  |  |  |  | 1800 nM | 660 nM | 3.5 nM | 860 nM |  |  | 
C[C@@H]1CN(c2cc(=O)n(C)c3ccc(C#N)nc23)[C@@H](C)CN1Cc1c(F)cccc1Cl [Example 261, 8-[(2S,5R)-4-[(2-chloro-6-fluorophenyl)methyl]-2,5-dimethylpiperazin-1-yl]-5-methyl-6-oxo-5,6-dihydro-1,5-naphthyridine-2-carbonitrile] |  |  |  |  | 390 nM | 1100 nM | 230 nM | 880 nM |  |  | 
C[C@@H]1CN(c2cc(=O)n(C)c3ccc(C#N)nc23)[C@@H](C)CN1C(c1ccc(F)cc1)c1nc(C2CCOCC2)no1 (single isomer, unassigned) [Example 739] | 130 nM | 760 nM | 52 nM |  |  |  |  |  |  |  | 190 nM
C[C@@H]1CN(c2cc(=O)n(C)c3ccc(C#N)nc23)[C@@H](C)CN1C(c1ccc(F)cc1)c1ccon1 (single isomer, unassigned) [Example 707] |  |  |  |  | 150 nM | 1700 nM | 44 nM |  |  | 400 nM | 
COc1ccc2c(n1)c(N1C[C@@H](C)N(C(c3ccc(F)cc3)c3ccc(F)cc3)C[C@@H]1C)cc(=O)n2C [Example 241] |  |  |  |  | 8300 nM | 17000 nM | 1600 nM | 16000 nM |  |  | 
CCc1ccccc1C(c1ccc(F)cc1)N1C[C@H](C)N(c2cc(=O)n(C)c3ccc(OC)nc23)C[C@H]1C (single isomer, unassigned) [Example 235] |  |  |  |  | 81000 nM | 4800 nM |  | 20000 nM | 1500 nM |  | 
C[C@@H]1CN(c2cc(=O)n(C)c3ccc(C#N)nc23)[C@@H](C)CN1C(c1ccccc1)c1ccc(F)cc1F (stereo partly drawn) [Example 283, 8-[(2S,5R)-4-[(2,4-difluorophenyl)(phenyl)methyl]-2,5-dimethylpiperazin-1-yl]-5-methyl-6-oxo-5,6-dihydro-1,5-naphthyridine-2-carbonitrile] |  |  |  |  | 650 nM | 1100 nM | 68 nM | 890 nM |  |  | 
Cc1ccc(C(c2ccc(F)cn2)N2C[C@H](C)N(c3c(C#N)c(=O)n(C)c4ccc(C#N)nc34)C[C@H]2C)cc1 (some centres unmarked) [Example 833] | 2000 nM | 2800 nM | 320 nM |  |  |  |  |  |  |  | 680 nM
C[C@@H]1CN(c2cc(=O)n(C)c3ccc(C#N)nc23)[C@@H](C)CN1C(c1ccc(Cl)cc1)c1cccc2c1OCCO2 (stereo partly drawn) [Example 447, 8-((2S,5R)-4-((4-chlorophenyl)(2,3-dihydrobenzo[b][1,4]dioxin-5-yl)methyl)-2,5-dimethylpiperazin-1-yl)-5-methyl-6-oxo-5,6-dihydro-1,5-naphthyridine-2-carbonitrile] |  |  |  |  | 7700 nM | 290 nM | 50 nM | 600 nM |  |  | 
CC[C@@H]1CN(c2cc(=O)n(C)c3ccc(C#N)nc23)[C@@H](C)CN1C(c1ccc(F)cc1)c1ncccc1F (some centres unmarked) [Example 1105] |  |  |  |  | 150 nM | 440 nM |  |  | 200 nM | 320 nM | 
CCc1cc(F)ccc1C(c1ccc(F)cc1)N1C[C@H](C)N(c2cc(=O)n(C)c3ccc(OC)nc23)C[C@H]1C (single isomer, unassigned) [Example 234] |  |  |  |  | 240000 nM | 8700 nM |  |  | 2500 nM | 20000 nM | 
